Data taken from patent US12447156B2, “Treating progressive familial intrahepatic cholestasis (PFIC) with IBAT inhibitors” (ALBIREO AB, priority 2020, dated 2025).

Legend:
Format in all cases: in vivo, human
[1] = test system: patients with PFIC with prior PEBD surgery; test: PEDFIC 1/2 post hoc subgroup: patients with prior partial external biliary diversion (PEBD); parameters: key: Y: sBAs ≤70 μmol/L or reduced ≥70% at last assessment; N, no
Description: One surgical treatment option for patients with PFIC is partial external biliary diversion (PEBD), which can be used to reduce bile acid levels in patients with medically refractory pruritus. However, PEBD is not successful in all patients. […] This post hoc subgroup analysis evaluated the safety and efficacy of odevixibat in patients enrolled in the PEDFIC studies who had PEBD surgery prior to study entry.
In the double-blind PEDFIC 1 study, children with PFIC1 or PFIC2 were randomized to placebo or 40 or 120 μg/kg/day odevixibat for 24 weeks. In PEDFIC 2, an ongoing, open-label extension study, patients from PEDFIC 1 or newly enrolled patients with any PFIC subtype receive odevixibat 120 μg/kg/day. In both PEDFIC 1 and PEDFIC 2, eligible patients had elevated sBAs and significant pruritus at screening. Changes over time in sBA levels and observer-reported pruritus (range: 0-4; higher scores indicate worse symptoms), sleep parameters, and quality of life (QoL; assessed with the Pediatric Quality of Life Inventory [PedsQL]) were evaluated in the subgroup of patients from PEDFIC 1 and/or PEDFIC 2 with a medical history of PEBD surgery performed prior to study enrollment.

[2] = test system: children with PFIC1 or PFIC2; test: PEDFIC 1: quality of life (PedsQL and PedsQL Family Impact Module)
Description: Study design and eligibility was as follows. In PEDFIC 1, patients were randomized 1:1:1 to receive oral, once-daily placebo, odevixibat 40 μg/kg/day, or odevixibat 120 μg/kg/day for 24 weeks; patients who completed 24 weeks of treatment could enroll in an open-label extension. Patients between the ages of 6 months and 18 years with a diagnosis of PFIC1 or PFIC2 were eligible for the study if they had elevated serum bile acid levels (defined as ≥100 μmol/L averaged from 2 samples taken prior to randomization, ≥7 days apart) and significant pruritus as reported by caregivers (average score ≥2 on a scale of 0-4 in the 2 weeks prior to randomization using an observer-reported outcome instrument).
A change from baseline to week 24 for the Pediatric QoL Inventory (PedsQL) questionnaire was assessed as an exploratory endpoint. Caregivers of patients ≥2 years old completed the PedsQL questionnaire, which assessed patient functioning in physical, emotional, social, and school domains; the output is a score between 0 and 100, where higher scores indicate better functioning and a higher change from baseline indicates an improvement in QoL, In addition, caregivers completed the PedsQL Family Impact Module, which assesses physical, emotional, social, and cognitive functioning as well as communication, worry, daily activities, and family relationship domains, also on a scale of 0 to 100. Total scores at baseline and at week 24 for all treatment groups as well as mean changes in scores from baseline to week 24 are presented for both odevixibat doses combined vs placebo; these are summarized descriptively.

[3] = test system: children with PFIC; test: PEDFIC 1: treatment responders in analysis of pretreatment serum bile acid parameters
Description: This analysis included children with PFIC aged 0.5-18 years with elevated sBAs and history of significant pruritus who were treated with odevixibat 40 μg/kg/day (n=23) or 120 μg/kg/day (n=19) in […] 1. Pretreatment sBA composition was analyzed using liquid chromatography-tandem mass spectrometry, quantifying serum concentrations of total BAs and primary (cholate, chenodeoxycholate) and secondary (deoxycholate, lithocholate) BAs. sBA concentrations are presented below including and excluding the contribution from ursodeoxycholate (UDCA). Pretreatment serum concentrations of 7α-hydroxy-4-cholesten-3-one (C4) were also quantified. Pretreatment parameters were analysed in treatment responders (Rs; i.e., patients with sBAs≤70 μmol/L or reduced ≥70% and/or a ≥1-point drop in observer-reported pruritus score from baseline to end of treatment) vs nonresponders (NRs).

[4] = PEDFIC 1, all doses, placebo 7.9
[5] = Week 24, 120 μg/kg/day (n = 15)

CCCCC1(CCCC)CN(c2ccccc2)c2cc(SC)c(OCC(=O)N[C@@H](C(=O)N[C@@H](CC)C(=O)O)c3ccc(O)cc3)cc2S(=O)(=O)N1 [Odevixibat, 1,1-dioxo-3,3-dibutyl-5-phenyl-7-methylthio-8-(N-{(R)-α-[N-((S)-1-carboxypropyl)carbamoyl]-4-hydroxybenzyl}carbamoylmethoxy)-2,3,4,5-tetrahydro-1,2,5-benzothiadiazepine]
sBA Responder? ([1]; Patient 1 (prior PEBD, PFIC2; PEDFIC 1 placebo, PEDFIC 2 120 μg/kg/d; 42 weeks exposure)): N
sBA Responder? ([1]; Patient 2 (prior PEBD, PFIC1; PEDFIC 1 placebo, PEDFIC 2 120 μg/kg/d; 35 weeks exposure)): N
sBA Responder? ([1]; Patient 3 (prior PEBD, PFIC1; PEDFIC 1 40 μg/kg/d, PEDFIC 2 120 μg/kg/d; 44 weeks exposure)): N
sBA Responder? ([1]; Patient 4 (prior PEBD, PFIC1; PEDFIC 1 40 μg/kg/d, PEDFIC 2 120 μg/kg/d; 55 weeks exposure)): N
sBA Responder? ([1]; Patient 5 (prior PEBD, PFIC2; 120 μg/kg/d in PEDFIC 1 and 2; 53 weeks exposure)): N
sBA Responder? ([1]; Patient 6 (prior PEBD, PFIC2; 120 μg/kg/d in PEDFIC 1 and 2; 44 weeks exposure)): N
sBA Responder? ([1]; Patient 7 (prior PEBD, PFIC2; 120 μg/kg/d in PEDFIC 1 and 2; 54 weeks exposure, discontinued)): N
sBA Responder? ([1]; Patient 8 (prior PEBD, PFIC1; 120 μg/kg/d in PEDFIC 1 and 2; 47 weeks exposure)): N
sBA Responder? ([1]; Patient 9 (prior PEBD, PFIC1; PEDFIC 2 only, 120 μg/kg/d; 25 weeks exposure)): N
PedsQL total score, mean change from baseline to week 24 ([2]; PEDFIC 1, all doses, placebo 0.5): 7.8
PedsQL Family Impact Module Family relationships, mean change from baseline to week 24 ([2]; PEDFIC 1, all doses, placebo 2.1): 10.9
PedsQL Family Impact Module Cognitive, mean change from baseline to week 24 ([2]; PEDFIC 1, all doses, placebo 3.2): 16.4
PedsQL Family Impact Module Total score, mean change from baseline to week 24 ([2]; PEDFIC 1, all doses, placebo 5.6): 14.5
PedsQL Family Impact Module Emotional, mean change from baseline to week 24 [2, 4]: 13.4
PedsQL Family Impact Module Worry, mean change from baseline to week 24 [2, 4]: 12.8
PedsQL Family Impact Module Physical, mean change from baseline to week 24 ([2]; PEDFIC 1, all doses, placebo 8.1): 18.9
PedsQL Family Impact Module Social, mean change from baseline to week 24 ([2]; PEDFIC 1, all doses, placebo 8.5): 13.5
PedsQL Family Impact Module Daily activities, mean change from baseline to week 24 ([2]; PEDFIC 1, all doses, placebo 9.3): 21.1
PedsQL Emotional functioning, mean change from baseline to week 24 ([2]; PEDFIC 1, all doses, placebo 13.5): 14.1
PedsQL Social functioning, mean change from baseline to week 24 ([2]; PEDFIC 1, all doses, placebo −1.0): 3.6
PedsQL Family Impact Module Communication, mean change from baseline to week 24 ([2]; PEDFIC 1, all doses, placebo −4.4): 8.3
PedsQL school functioning, mean change from baseline to week 24 ([2]; PEDFIC 1, all doses, placebo −5.3): 2.3
PedsQL Physical functioning, mean change from baseline to week 24 ([2]; PEDFIC 1, all doses, placebo −5.9): 7.8
PedsQL Family Impact Module Cognitive functioning, Mean (SE) ([2]; Week 24, 40 μg/kg/day (n = 19)): 65.3 (4.9)
PedsQL Family Impact Module Communication, Mean (SE) ([2]; Week 24, 40 μg/kg/day (n = 19)): 57.0 (5.6)
PedsQL Family Impact Module Daily activities, Mean (SE) ([2]; Week 24, 40 μg/kg/day (n = 19)): 50.9 (6.1)
PedsQL Family Impact Module Emotional functioning, Mean (SE) ([2]; Week 24, 40 μg/kg/day (n = 19)): 55.8 (5.6)
PedsQL Family Impact Module Family relationships, Mean (SE) ([2]; Week 24, 40 μg/kg/day (n = 19)): 68.7 (5.9)
PedsQL Family Impact Module Physical functioning, Mean (SE) ([2]; Week 24, 40 μg/kg/day (n = 19)): 57.0 (5.7)
PedsQL Family Impact Module Social functioning, Mean (SE) ([2]; Week 24, 40 μg/kg/day (n = 19)): 61.8 (6.4)
PedsQL Family Impact Module Total score, Mean (SE) ([2]; Week 24, 40 μg/kg/day (n = 19)): 58.4 (4.7)
PedsQL Family Impact Module Worry, Mean (SE) ([2]; Week 24, 40 μg/kg/day (n = 19)): 47.9 (5.3)
PedsQL School functioning, Mean (SE) ([2]; Week 24, 40 μg/kg/day, n 9): 53.2 (5.2)
PedsQL Emotional functioning, Mean (SE) ([2]; Week 24, 40 μg/kg/day, n 13): 54.6 (4.7)
PedsQL Physical functioning, Mean (SE) ([2]; Week 24, 40 μg/kg/day, n 13): 56.3 (4.0)
PedsQL Social functioning, Mean (SE) ([2]; Week 24, 40 μg/kg/day, n 13): 63.1 (6.4)
PedsQL Total score, Mean (SE) ([2]; Week 24, 40 μg/kg/day, n 13): 56.8 (4.0)
PedsQL Family Impact Module Cognitive functioning, Mean (SE) [2, 5]: 67.7 (6.2)
PedsQL Family Impact Module Communication, Mean (SE) [2, 5]: 68.9 (5.6)
PedsQL Family Impact Module Daily activities, Mean (SE) [2, 5]: 54.4 (8.1)
PedsQL Family Impact Module Emotional functioning, Mean (SE) [2, 5]: 63.0 (5.9)
PedsQL Family Impact Module Family relationships, Mean (SE) [2, 5]: 72.7 (5.6)
PedsQL Family Impact Module Physical functioning, Mean (SE) [2, 5]: 63.3 (5.6)
PedsQL Family Impact Module Social functioning, Mean (SE) [2, 5]: 64.6 (7.6)
PedsQL Family Impact Module Total score, Mean (SE) [2, 5]: 63.5 (5.3)
PedsQL Family Impact Module Worry, Mean (SE) [2, 5]: 52.0 (5.8)
PedsQL School functioning, Mean (SE) ([2]; Week 24, 120 μg/kg/day, n 10): 63.3 (7.6)
PedsQL Emotional functioning, Mean (SE) ([2]; Week 24, 120 μg/kg/day, n 11): 59.6 (6.9)
PedsQL Physical functioning, Mean (SE) ([2]; Week 24, 120 μg/kg/day, n 11): 56.8 (8.7)
PedsQL Social functioning, Mean (SE) ([2]; Week 24, 120 μg/kg/day, n 11): 65.9 (8.6)
PedsQL Total score, Mean (SE) ([2]; Week 24, 120 μg/kg/day, n 11): 60.7 (7.0)
PedsQL Family Impact Module Cognitive functioning, Mean (SE) ([2]; Week 24, All Doses (n = 34)): 66.3 (3.8)
PedsQL Family Impact Module Communication, Mean (SE) ([2]; Week 24, All Doses (n = 34)): 62.3 (4.1)
PedsQL Family Impact Module Daily activities, Mean (SE) ([2]; Week 24, All Doses (n = 34)): 52.5 (4.9)
PedsQL Family Impact Module Emotional functioning, Mean (SE) ([2]; Week 24, All Doses (n = 34)): 59.0 (4.1)
PedsQL Family Impact Module Family relationships, Mean (SE) ([2]; Week 24, All Doses (n = 34)): 70.4 (4.1)
PedsQL Family Impact Module Physical functioning, Mean (SE) ([2]; Week 24, All Doses (n = 34)): 59.8 (4.0)
PedsQL Family Impact Module Social functioning, Mean (SE) ([2]; Week 24, All Doses (n = 34)): 63.1 (4.8)
PedsQL Family Impact Module Total score, Mean (SE) ([2]; Week 24, All Doses (n = 34)): 60.6 (3.5)
PedsQL Family Impact Module Worry, Mean (SE) ([2]; Week 24, All Doses (n = 34)): 49.7 (3.9)
PedsQL School functioning, Mean (SE) ([2]; Week 24, All Doses, n 19): 58.5 (4.7)
PedsQL Emotional functioning, Mean (SE) ([2]; Week 24, All Doses, n 24): 56.9 (4.0)
PedsQL Physical functioning, Mean (SE) ([2]; Week 24, All Doses, n 24): 56.5 (4.4)
PedsQL Social functioning, Mean (SE) ([2]; Week 24, All Doses, n 24): 64.4 (5.1)
PedsQL Total score, Mean (SE) ([2]; Week 24, All Doses, n 24): 58.6 (3.8)
proportion of treatment responders (sBAs ≤70 μmol/L or reduced ≥70% and/or ≥1-point drop in pruritus score) ([3]; PEDFIC 1, 40 μg/kg/day): 16/23
proportion of treatment responders (sBAs ≤70 μmol/L or reduced ≥70% and/or ≥1-point drop in pruritus score) ([3]; PEDFIC 1, dose groups combined, 24/42): 57%
